# Reference: PMC5996347, “2-Mercapto-Quinazolinones as Inhibitors of Type II NADH Dehydrogenase and Mycobacterium tuberculosis: Structure–Activity Relationships, Mechanism of Action and Absorption, Distribution, Metabolism, and Excretion Characterization” (ACS Infectious Diseases, 2018)
# Where two headings read alike, the source gives them in different places.
# Legend:
# physchem [1] = type: physicochemical; details: pH 7.4
# Procedure: The chromatographic hydrophobicity index (CHI) was determined according the method previously described.[43],[44] Briefly, test compounds were prepared as 0.5 mM solutions in 50:50 acetonitrile/water and analyzed by reversed-phase HPLC-UV (wavelength 254 nm) using a Phenomenex Luna C18 100 Å, 150 × 4.6 mm, 5 μm column with a gradient of aqueous phase (50 mM ammonium acetate (pH 7.4)) and mobile phase (acetonitrile). By plotting the retention time of a set of reference compounds against known CHI values, the CHI value of test compounds was calculated according to their retention time.
# M. tuberculosis H37Rv [2] = test: H37Rv MIC in GAST medium; type: cell-based, Mycobacterium tuberculosis; details: Mycobacterium tuberculosis, H37RV
# piniBAC reporter strain = type: cell-based, Mycobacterium tuberculosis; details: upregulation of iniBAC promoter
# physchem [3] = type: physicochemical; details: water, kinetic from dmso stock, Kinetic solubility
# Procedure: The aqueous solubility of the test compounds was measured using laser nephelometry. Compounds were subject to serial dilution from 10 to 0.5 mM in DMSO. An aliquot was then mixed with Milli-Q water to obtain an aqueous dilution plate with a final concentration range of 250–12 μM, with a final DMSO concentration of 2.5%. Triplicate aliquots were transferred to a flat bottomed polystyrene plate which was immediately read on the NEPHELOstar (BMG Lab Technologies). The amount of laser scatter caused by insoluble particulates (relative nephelometry units, RNU) was plotted against compound concentration using a segmental regression fit, with the point of inflection being quoted as the compounds aqueous solubility (μM).
# [4] = target: T1, recombinant MBP-MtNdh (MTb NDH-2) (Mycobacterium tuberculosis, UniProt P95160); test: Ndh activity assay (NADH oxidation at 340 nm); type: biochemical
# T1 construct: The ORF corresponding to Rv1854c was codon optimized for E. coli; made in house; host or cells: E. coli BL21 (DE3) pLysS
# T1 sequence (P95160 whole entry): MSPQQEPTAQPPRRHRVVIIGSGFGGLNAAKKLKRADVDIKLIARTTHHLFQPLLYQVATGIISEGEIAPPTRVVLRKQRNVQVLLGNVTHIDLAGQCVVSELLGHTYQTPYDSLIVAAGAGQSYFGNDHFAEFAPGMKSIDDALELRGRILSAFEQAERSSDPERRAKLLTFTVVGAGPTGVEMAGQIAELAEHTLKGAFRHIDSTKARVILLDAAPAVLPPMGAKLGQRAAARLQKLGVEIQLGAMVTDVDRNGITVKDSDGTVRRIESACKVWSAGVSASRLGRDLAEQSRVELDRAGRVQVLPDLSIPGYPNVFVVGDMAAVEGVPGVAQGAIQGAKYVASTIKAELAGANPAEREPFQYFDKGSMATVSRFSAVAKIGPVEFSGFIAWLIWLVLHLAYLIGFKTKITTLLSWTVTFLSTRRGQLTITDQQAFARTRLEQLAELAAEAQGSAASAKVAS
# [5] = type: in vitro ADME; details: mouse, plasma
# Procedure: In brief, a 96-well equilibrium dialysis apparatus was used to determine the free fraction in plasma for each compound (HT Dialysis LLC, Gales Ferry, CT). Membranes (12–14 kDaA cutoff) were conditioned in deionized water for 60 min, followed by conditioning in 80:20 deionized water/ethanol overnight and then rinsed in water and isotonic buffer before use. Mouse plasma from appropriate species was removed from the freezer and allowed to thaw on the day of experiment. Thawed plasma was then centrifuged (Allegra X12-R, Beckman Coulter, USA) and spiked with test compound (final concentration 10 μg/mL), and 150 μL aliquots (n = 3 replicate determinations) were loaded into the 96-well equilibrium dialysis plate. Dialysis against isotonic buffer (150 μL) was carried out for 5 h in a temperature controlled incubator at ca. 37 °C (Barworld scientific Ltd., UK) using an orbital microplate shaker at 100 rpm (Barworld scientific Ltd., UK). At the end of the incubation period, 50 μL aliquots of plasma or buffer were transferred into a 96-well deep plate and the composition in each well was balanced with control fluid (50 μL), such that the volume of buffer to plasma is the same. Sample extraction was performed by the addition of 200 μL of acetonitrile containing an appropriate internal standard. Samples were allowed to mix for 1 min and then centrifuged at 3000 rpm in 96-well blocks for 15 min (Allegra X12-R, Beckman Coulter, USA) after which 150 μL of supernatant was removed to 50 μL of water. All samples were analyzed by UPLC-MS/MS on a Quattro Premier XE Mass Spectrometer (Waters Corporation, USA). The unbound fraction was determined as the ratio of the peak area in buffer to that in plasma.
# HepG2 [6] = system: HepG2
# MTb H37Rv = test: Intracellular ATP levels (BacTiter-Glo); details: 24 h drug exposure
# ndhA mutant = type: cell-based; details: results not shown
# HepG2 [7] = test: cells; details: Homo sapiens, HepG2, read-out: HepG2 IC50
# [8] = mouse liver microsomes
# [9] = system: cyd knockout strain (cydC::aph); type: cell-based, Mycobacterium tuberculosis
# [10] = Calculated properties (StarDrop)
# M. tuberculosis H37Rv [11] = test: Extracellular flux analysis (oxygen consumption rate); details: 1 at 39 μM, 7 at 45 μM
# [12] = system: MTb H37Rv in J774 macrophages; test: Activity against MTb in infected macrophages; type: cell-based, Mycobacterium tuberculosis; details: 7 days of drug treatment, CFU
# Procedure: Figure S7. […] J774 macrophages in
# 24w plates (500,000 cells per well) were infected with MTb H37Rv at an MOI of 1:1 for 24 hours. Infected cells were washed three times and supplemented with macrophage growth medium with compounds at the indicated concentrations or the DMSO solvent. Cell medium was replenished every 3 days and cells lyzed after 7 days of drug treatment and plated on 7H11/OADC plates for CFU enumeration.
# (1 picture or pasted object on this page, not shown here)
# Mouse pharmacokinetics = type: in vivo, female C57Bl/6 mice; details: female
# Procedure: Test compound was dosed as a bolus solution intravenously at 3 mg free base/kg (dose volume: 5 mL/kg; dose vehicle: 10% DMSO; 40% PEG400; 50% saline) to female C57Bl/6 mice (n = 3) or dosed orally by gavage as a suspension at 10 or at 5, 30, or 100 mg free base/kg (dose volume: 10 mL/kg; dose vehicle: 1.0% carboxy methyl cellulose) to female C57Bl/6 mice (n = 3/dose level). Blood samples were taken from each mouse tail vein at predetermined time points postdose, mixed with nine volumes of distilled water, and stored frozen until UPLC-MS/MS analysis. Pharmacokinetic parameters were derived from the blood concentration time curve using PK Solutions software v 2.0 (Summit Research Services, USA).
# [13] = C57Bl/6, mouse, in vivo, po, 10 mg/kg
smiles,measurement,setting,value
"O=C(CSc1nc2ccccc2c(=O)[nH]1)NC1CCCCC1 [Compound 1, N-Cyclohexyl-2-((4-oxo-3,4-dihydroquinazolin-2-yl)thio)acetamide]",chromatographic logD,physchem [1],1.8
same,MIC,M. tuberculosis H37Rv [2]; read-out: GAST MIC,0.3 µM
same,MIC,M. tuberculosis H37Rv [2]; read-out: GAST MIC in ng/mL,95 ng/mL
same,pini-LUC reporter,piniBAC reporter strain,Not likely cell wall inhibitor
same,solubility kinetic,physchem [3],83 µM
same,IC50,"[4]; NADH 250 μM, Q2 40 μM, mean ± SD, Figure 6 inset, read-out: IC50 against MBP-MtNdh",23 ± 8 nM
same,Ki,"[4]; varying Q2 or NADH, double reciprocal plots, read-out: Ki against MtNdh",30 to 40 nM
same,Mode of inhibition against MtNdh,[4]; versus Q2 and NADH,noncompetitive mode of inhibition with both substrates
same,PPB (% unbound),[5],14 % unbound
same,HepG2 cytotoxicity (in words),HepG2 [6],no noticeable cytotoxicity
same,Cellular ATP levels in MTb,MTb H37Rv,depletion of cellular ATP levels
same,MIC to ndhA mutant strain compared with WT,ndhA mutant,indistinguishable from WT cells
same,IC50,HepG2 [7],> 50000 nM
same,Mouse microsomal metabolite identification,[8],significant oxidation of the cyclohexyl and quinazolin-4(3H)-one rings as well as cleavage of the amide bond
same,Cyd KO reporter,[9],Not likely QcrB inhibitor
same,PFI,[10],4.7
same,Effect on maximal respiration after CCCP uncoupling,"M. tuberculosis H37Rv [11]; CCCP 3 μM, compared to untreated control",significantly diminished maximal respiration
same,Effect on basal MTb OCR,"M. tuberculosis H37Rv [11]; ~45 min, glucose or palmitate",minimal effect
same,Activity against MTb growing in infected macrophages,[12],lacked activity
same,Clb,"Mouse pharmacokinetics; C57Bl/6, mouse, in vivo",23 mL/min/kg
same,Vd,"Mouse pharmacokinetics; C57Bl/6, mouse, in vivo",0.8 L/kg
same,bioavailability,"Mouse pharmacokinetics; C57Bl/6, mouse, in vivo",46%
same,AUC(0-t),Mouse pharmacokinetics; [13],2610 ng·h/mL
same,Cmax,Mouse pharmacokinetics; [13],748 ng/mL
same,half-life,"Mouse pharmacokinetics; C57Bl/6, whole blood, C57 mouse PK at 3 iv and 10 po (mg/kg), 1 free base, 7 HCl salt",1.5 h
